Values quoted from earlier work as cited in patent US6652882B1, “Controlled release formulation containing bupropion” (Intellipharmaceutics Corp, priority 1997, dated 2003).

How the values were obtained:
[1] = oral administration; mammals such as rats and dogs
[2] = during storage

CC(NC(C)(C)C)C(=O)c1cccc(Cl)c1 (racemic) [Bupropion, (±)-2-(tert-butylamino)3′-chloropropiophenone]
absolute bioavailability [1]: 5% to 20 | stability on storage [2]: subject to hydrolytic decomposition during storage
